Results: ChEMBL document CHEMBL3217664, “Synthesis and biological evaluation of 4-chlorocolchicine derivatives as potent anticancer agents with broad effective dosage ranges” (Medchemcomm, 2012)

Legend:
[1] = tested on: HCT-116; test: Cytotoxicity against human HCT116 cells after 96 hrs by microplate reader analysis; type: functional, cell-based; settings: HCT-116, 96 h
[2] = tested on: A549; test: Cytotoxicity against human A549 cells after 96 hrs by microplate reader analysis; type: functional, cell-based; settings: A549, 96 h
[3] = tested on: HT-29; test: Cytotoxicity against human HT-29 cells after 96 hrs by microplate reader analysis; type: functional, cell-based; settings: HT-29, 96 h
[4] = tested on: HCT-116; test: Antitumor activity against human HCT116 cells xenografted in BALB/c mouse assessed as tumor growth inhibition at 1.5 mg/kg/day, iv administered on day 1, 5 and 9 relative to control; type: functional; settings: HCT-116, 24 h, read-out: TGI
[5] = tested on: HCT-116; test: Antitumor activity against human HCT116 cells xenografted in BALB/c mouse assessed as tumor growth inhibition at 0.75 mg/kg/day, iv administered on day 1, 5 and 9 relative to control; type: functional; settings: HCT-116, 24 h, read-out: TGI
[6] = tested on: Mus musculus; test: Toxicity in BALB/c mouse assessed as mortality at 0.75 mg/kg/day, iv administered on day 1, 5 and 9; type: organism-based; design: route intravenous; settings: in vivo
[7] = tested on: Mus musculus; test: Toxicity in BALB/c mouse assessed as mortality at 1.5 mg/kg/day, iv administered on day 1, 5 and 9; type: organism-based; design: route intravenous; settings: in vivo
[8] = tested on: Liver; test: Metabolic stability in BALB/c mouse liver microsomes at 1 umol/l by LC-MS/MS analysis; type: ADME; settings: 1 µM

Row | SMILES | IC50 [1] [nM] | IC50 [2] | IC50 [3] [nM] | inhibition in vivo at 1.5 mg/kg/day [4] [%] | inhibition in vivo at 0.75 mg/kg/day [5] [%] | Activity [6] | Activity [7] | Stability [8] [µL/min/mg]
1 | COc1c(Cl)c2c(c(OC)c1OC)-c1ccc(OC)c(=O)cc1[C@@H](NC(=O)c1ccccc1C#N)CC2 | 104 | 140 nM | 49.7 |  |  |  |  | 
2 | COc1c(Cl)c2c(c(OC)c1OC)-c1ccc(OC)c(=O)cc1[C@@H](NC(=O)c1cccc(C#N)c1)CC2 | 4.1 | 7.4 nM | 1.6 |  |  |  |  | 
3 | COc1c(Cl)c2c(c(OC)c1OC)-c1ccc(OC)c(=O)cc1[C@@H](NC(=O)c1ccc(C#N)cc1)CC2 | 6.7 | 11.9 nM | 6.7 |  |  |  |  | 
4 | COc1c(Cl)c2c(c(OC)c1OC)-c1ccc(OC)c(=O)cc1[C@@H](NC(=O)c1ccccc1[N+](=O)[O-])CC2 | 30.2 | 56.6 nM | 31.7 |  |  |  |  | 
5 | COc1c(Cl)c2c(c(OC)c1OC)-c1ccc(OC)c(=O)cc1[C@@H](NC(=O)c1cccc([N+](=O)[O-])c1)CC2 | 0.8 | 1.7 nM | 0.1 |  |  |  |  | 
6 | COc1c(Cl)c2c(c(OC)c1OC)-c1ccc(OC)c(=O)cc1[C@@H](NC(=O)c1ccc([N+](=O)[O-])cc1)CC2 | 6.2 | 11.2 nM | 6.9 |  |  |  |  | 
7 | COc1c(Cl)c2c(c(OC)c1OC)-c1ccc(OC)c(=O)cc1[C@@H](NC(=O)c1cc([N+](=O)[O-])cc([N+](=O)[O-])c1)CC2 | 6.8 | 31.2 nM | 5 |  |  |  |  | 
8 | COc1c(Cl)c2c(c(OC)c1OC)-c1ccc(OC)c(=O)cc1[C@@H](NC(=O)c1ccccc1N(C)C)CC2 | 171 | 206 nM | 186 |  |  |  |  | 
9 | COc1c(Cl)c2c(c(OC)c1OC)-c1ccc(OC)c(=O)cc1[C@@H](NC(=O)c1ccc(N(C)C)cc1)CC2 | 150 | 169 nM | 148 |  |  |  |  | 
10 | COc1c(Cl)c2c(c(OC)c1OC)-c1ccc(OC)c(=O)cc1[C@@H](NC(=O)CN(C)C)CC2 | 67 | 160 nM | 46 |  |  |  |  | 
11 | COc1c(Cl)c2c(c(OC)c1OC)-c1ccc(OC)c(=O)cc1[C@@H](NC(=O)CCN(C)C)CC2 | 539 | 960 nM | 354 |  |  |  |  | 
12 | COc1c(Cl)c2c(c(OC)c1OC)-c1ccc(OC)c(=O)cc1[C@@H](NC(=O)CCC(=O)O)CC2 | 6580 | > 5 µg/mL | 6270 |  |  |  |  | 
13 | COc1c(Cl)c2c(c(OC)c1OC)-c1ccc(OC)c(=O)cc1[C@@H](NC(=O)CCCC(=O)O)CC2 | 3680 | 5360 nM | 2250 |  |  |  |  | 
14 | COc1c(Cl)c2c(c(OC)c1OC)-c1ccc(OC)c(=O)cc1[C@@H](NC(=O)CS)CC2 | 192 | 400 nM | 209 |  |  |  |  | 
15 | COc1c(Cl)c2c(c(OC)c1OC)-c1ccc(OC)c(=O)cc1[C@@H](NC(=O)[C@H](C)O)CC2 | 7.9 | 18.7 nM | 8.5 |  |  |  |  | 
16 | COc1c(Cl)c2c(c(OC)c1OC)-c1ccc(OC)c(=O)cc1[C@@H](NC(=O)[C@@H](C)O)CC2 | 7.7 | 19.5 nM | 7.2 |  |  |  |  | 
17 | CCC(O)(CC)C(=O)N[C@H]1CCc2c(Cl)c(OC)c(OC)c(OC)c2-c2ccc(OC)c(=O)cc21 | 38.7 | 38 nM | 36.5 |  |  |  |  | 
18 | COc1c(Cl)c2c(c(OC)c1OC)-c1ccc(OC)c(=O)cc1[C@@H](NC(=O)CCO)CC2 | 48.6 | 230 nM | 46.1 |  |  |  |  | 
19 | COc1c(Cl)c2c(c(OC)c1OC)-c1ccc(OC)c(=O)cc1[C@@H](NC(=O)CCCO)CC2 | 175 | 357 nM | 168 |  |  |  |  | 
20 | COc1cc2c(c(OC)c1OC)-c1ccc(OC)c(=O)cc1[C@@H](NC(C)=O)CC2 [COLCHICINE] |  |  |  | 92.6 | 14 | Non-toxic | Non-toxic | 1
